Like-named read-outs stand apart in the source and are kept apart here.
Assays:
pERK in NCI-H358 cells = assay: Cell-based pERK HTRF assay; conditions: 30 min incubation, read-out: pERK in NCI-H358 cell inhibition IC50
Method in brief: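 Cells seeded at 4×10^4/well in RPMI with 10% FBS, then next day treated for 30 min with a 9-point, 3-fold series from 75 μM top concentration at 0.25% DMSO. Lysates were read for pERK by HTRF (d2/Eu cryptate antibodies) after 4–24 h at room temperature, emission at 615 nm.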

[1] = biological target: T1, GDP-loaded KRAS4b (amino acids 1-169) G12C/C118S protein (Homo sapiens, UniProt P01116, C118S/G12C); assay: Covalent cysteine 12 modification by MALDI-TOF MS, GDP-loaded KRAS G12C; type: binding; conditions: 15 minutes reaction time point
T1 construct: KRAS4b (amino acids 1-169) G12C/C118S protein; made in house
Method in brief: (§1)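 KRAS4b 1-169 G12C/C118S loaded with GDP, GppNHp or GTP was used at 1 μM in 20 mM HEPES, 150 mM NaCl, 1 mM MgCl2, pH 7.3, and incubated with compound (5 mM DMSO stock) at room temperature in the dark. % modification at 15 min is adduct peak height over total protein peak heights by linear-mode MALDI-TOF.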

[2] = biological target: T2, GTP-loaded KRAS4b (amino acids 1-169) G12C/C118S protein (Homo sapiens, UniProt P01116, C118S/G12C); assay: Covalent cysteine 12 modification by MALDI-TOF MS, GTP-loaded KRAS G12C; type: binding; conditions: 15 minutes reaction time point
T2 construct: KRAS4b (amino acids 1-169) G12C/C118S protein; made in house
Procedure: Reaction: 1 μM of GppNHp-, GTP-, or GDP-loaded KRAS4b (amino acids 1-169) G12C/C118S protein (produced in-house by Protein Expression Laboratory, FNLCR/Leidos Biomed) in 20 mM 4-(2-hydroxyethyl)-1-piperazineethanesulfonic acid (HEPES) buffer containing 150 mM NaCl, 1 mM MgCl2, pH 7.3 was prepared freshly before assay. Ten-μL aliquots of protein were dispensed onto low volume 384-well plate, then 375 nL DMSO, and 25 nL of tested compounds from 5 mM DMSO stocks were added to appropriate wells using ECHO 555 acoustic liquid handler (Labcyte Inc.). For each reaction/assay, three blanks were prepared by mixing 10 μL of protein solution with 400 nL DMSO. The contents of the wells were carefully mixed by aspiration, and then each plate was sealed with an adhesive cover, centrifuged at 2000 g for 1 minute, and kept in the dark at room temperature until 5 min, 15 min, 30 min, or 2 h collections.
Target pretreatment: Before each assay MALDI target (Bruker MPT 384 ground steel BC) was pre-treated by pipetting on each spot 0.75 μL of saturated sinapinic acid in acetonitrile (ACN).
Sample preparation: At collection time point, 2 μL of reaction mixtures were pipetted out into 20 μL MALDI matrix solution (saturated solution of sinapinic acid in 1:1 ACN:water solution containing 0.75% trifluoroacetic acid (TFA)) deposited on 384 well polypropylene plate. Resulting solution was mixed by aspiration, centrifuged at 2000 g for 1 minute, then 1 μL aliquots were dispensed on pre-treated MALDI target using Beckman Coulter Biomek FXP 96/384-Span-8 Laboratory Automation Workstation. Finally, the MALDI target was dried under mild vacuum to produce spots with fine crystalline structure.
Measurements: MALDI-TOF measurements were performed on a Bruker Daltonics rapiflex Tissuetyper TOF-TOF mass spectrometer using linear mode and mass range from 18.6 to 21.6 kDa. Detector gain was set to 3.3× (483 V), sample rate to 5 GS/s, real time smoothing to medium (175 MHz), laser smart beam pattern was set to: “MS Thin Layer M5”, and the laser frequency was 10000 Hz. Spectra were automatically collected using custom Auto Xecute method. Laser power was auto adjusted using fuzzy control. The peak selection range was set to be between 19000 and 21500 Da. Peak evaluation uses half width parameter set to be smaller than 40 Da for processed spectrograms (centroid peak detection; smoothed by SavitzkyGolay algorithm using 7 m/z width and 2 cycles; baseline was subtracted using median algorithm with flatness 1 and median level 0.01). Fuzzy control used Proteins/Oligonucleotides protocol with minimum half width 1/10 times above threshold. Up to 40000 satisfactory shots were collected in 10000 shot steps. Dynamic termination was implemented to finish data collection when peak signal/noise ratio was reaching value of 50.
Spectra processing: Spectra were smoothed by SavitzkyGolay algorithm using 7 m/z width and three cycles. Centroid peak detection algorithm was used with signal to noise threshold set to 6, relative intensity threshold 4%, peak width 10 m/z and median baseline subtraction using flatness of 1 and median level of 0.01. Peak intensity and area under the peak were evaluated and recorded for all peaks between 19,300 Da and 21,550 Da.
Calculation of percent modification: Percent modification was calculated as a ratio of peak height for protein modified by compound to sum of peak height of remaining protein plus peak height for protein modified by compound. If multiple modifications were observed each was calculated as a ratio of peak height for given modification versus sum of peak heights for all observed protein species. Data reported in Table 5 are from 15 minutes reaction time point.

[3] = biological target: T3, Avi-KRAS G12C (1-169) GppNHp/RAF1 RBD-3×FLAG (52-151) (Homo sapiens, UniProt P01116, G12C); assay: Raf1 RBD-KRAS G12C-GppNHp disruption (protein:protein interaction HTRF assay); type: biochemical
T3 construct: Avi-KRAS G12C (1-169) GppNHp/RAF1 RBD-3×FLAG (52-151)
Method in brief: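 HTRF measuring disruption of 50 nM Avi-KRAS G12C (1-169) loaded with GppNHp binding RAF1 RBD-3×FLAG (52-151), in pH 7.5 Tris buffer with 5 mM MgCl2, 0.1% BSA, 10% DMSO. KRAS preincubated with compound 1 h, then RBD 1 h, then detection reagents 1 h, all at room temperature. Compound titration 30-0.02 μM; activity expressed as percent of DMSO control.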

[4] = biological target: T4, GppNHp-loaded KRAS4b (amino acids 1-169) G12C/C118S protein (Homo sapiens, UniProt P01116, C118S/G12C); assay: Covalent cysteine 12 modification by MALDI-TOF MS, GppNHp-loaded KRAS G12C; type: binding; conditions: 15 minutes reaction time point
T4 construct: KRAS4b (amino acids 1-169) G12C/C118S protein; made in house
Method in brief: as §1

| IC50 (pERK in NCI-H358 cells; Homo sapiens, NCI-H358, 0.5 h) | GDP-KRAS G12C percent of modification [1] | GTP-KRAS G12C percent of modification [2] | IC50 [3] | GppNHp-KRAS G12C percent of modification [4] | IC50 (pERK in NCI-H358 cells) | Structure (SMILES) |
| --- | --- | --- | --- | --- | --- | --- |
| ≤ 100 nM | A (percent of modification ≥70%) | B (50≤percent of modification <70%) | ≤ 500 nM | A (percent of modification ≥70%) |  | C=CC(=O)N1CC[C@@H](Oc2nc(OC[C@@]34CCCN3C[C@H](F)C4)nc3c(Cl)c(-c4ccc(F)c5sc(N)nc45)c(C(F)(F)F)cc23)C1 (atropisomer, axis not shown) [Compound 44] |
|  | C (10%≤modification <50%) | C (10%≤modification <50%) | ≤ 500 nM | C (10%≤modification <50%) | ≤ 100 nM | C=CC(=O)N1C[C@H](Oc2nc(OC[C@@]34CCCN3C[C@H](F)C4)nc3c(F)c(-c4ccc(F)c5sc(N)c(C#N)c45)c(C(F)(F)F)cc23)C[C@@H]1COC (atropisomer, axis not shown) [Compound 85] |
|  | D (percent of modification <10%) | D (percent of modification <10%) | 5000 to 20000 nM | D (percent of modification <10%) | > 1000 nM | C=CC(=O)N1C[C@H](Oc2nc(OC[C@@]34CCCN3C[C@H](F)C4)nc3c(F)c(-c4ccc(F)c5sc(N)c(C#N)c45)c(C(F)(F)F)cc23)C[C@@H]1COC (atropisomer, axis not shown) [Compound 86] |
|  | A (percent of modification ≥70%) | B (50≤percent of modification <70%) | ≤ 500 nM | B (50≤percent of modification <70%) | ≤ 100 nM | C=CC(=O)N1C[C@H](Oc2nc(OC[C@@]34CCCN3C[C@H](F)C4)nc3c(F)c(-c4ccc(F)c5sc(N)c(C#N)c45)c(C(F)(F)F)cc23)C[C@H]1COC (atropisomer, axis not shown) [Compound 89] |
| ≤ 100 nM | A (percent of modification ≥70%) |  | ≤ 500 nM | A (percent of modification ≥70%) |  | C=CC(=O)N1C[C@H](Oc2nc(OC[C@@]34CCCN3C[C@H](F)C4)nc3c(F)c(-c4ccc(F)c5sc(N)nc45)c(C(F)(F)F)cc23)[C@@H](F)C1 [Compound 28, 1-((3S,4S)-3-((7-(2-amino-7-fluorobenzo[d]thiazol-4-yl)-8-fluoro-2-(((2R,7aS)-2-fluorotetrahydro-1H-pyrrolizin-7a (5H)-yl)methoxy)-6-(trifluoromethyl)quinazolin-4-yl)oxy)-4-fluoropyrrolidin-1-yl) prop-2-en-1-one] |
| ≤ 100 nM | A (percent of modification ≥70%) |  | ≤ 500 nM | A (percent of modification ≥70%) |  | C=CC(=O)N1CC[C@@H](Oc2nc(OC[C@@]34CCCN3C[C@H](F)C4)nc3c(F)c(-c4ccc(F)c5sc(N)nc45)c(C(F)(F)F)cc23)[C@H]1C [Compound 29, 1-((2R,3R)-3-((7-(2-amino-7-fluorobenzo[d]thiazol-4-yl)-8-fluoro-2-(((2R,7aS)-2-fluorotetrahydro-1H-pyrrolizin-7a (5H)-yl)methoxy)-6-(trifluoromethyl)quinazolin-4-yl)oxy)-2-methylpyrrolidin-1-yl) prop-2-en-1-one] |
| ≤ 100 nM | A (percent of modification ≥70%) |  | ≤ 500 nM | B (50≤percent of modification <70%) |  | C=CC(=O)N1CC(Oc2nc(OC[C@@]34CCCN3C[C@H](F)C4)nc3c(F)c(-c4ccc(F)c5sc(N)nc45)c(C(F)(F)F)cc23)[C@@H](C)C1 (stereo partly shown) [Compound 34] |
|  | C (10%≤modification <50%) |  | 500 to 5000 nM | D (percent of modification <10%) | 100 to 1000 nM | C=CC(=O)N1CC(Oc2nc(OC[C@@]34CCCN3C[C@H](F)C4)nc3c(F)c(-c4ccc(F)c5sc(N)nc45)c(C(F)(F)F)cc23)[C@@H](C)C1 (stereo partly shown) [Compound 35] |
| ≤ 100 nM | C (10%≤modification <50%) |  | ≤ 500 nM | C (10%≤modification <50%) |  | C=CC(=O)N1CC[C@@H](Oc2nc(OC[C@@]34CCCN3C[C@H](F)C4)nc3c(F)c(-c4ccc(F)c5oc(N)nc45)c(C(F)(F)F)cc23)C1 [Compound 36, 1-((3R)-3-((7-(2-amino-7-fluorobenzo[d]oxazol-4-yl)-8-fluoro-2-(((2R,7aS)-2-fluorotetrahydro-1H-pyrrolizin-7a (5H)-yl)methoxy)-6-(trifluoromethyl)quinazolin-4-yl)oxy)pyrrolidin-1-yl) prop-2-en-1-one] |
| ≤ 100 nM | A (percent of modification ≥70%) |  | ≤ 500 nM | A (percent of modification ≥70%) |  | C=CC(=O)N1C[C@@H](F)[C@@H](Oc2nc(OC[C@@]34CCCN3C[C@H](F)C4)nc3c(F)c(-c4ccc(F)c5sc(N)nc45)c(C(F)(F)F)cc23)C1 [Compound 40, 1-((3S,4R)-3-((7-(2-amino-7-fluorobenzo[d]thiazol-4-yl)-8-fluoro-2-(((2R,7aS)-2-fluorotetrahydro-1H-pyrrolizin-7a (5H)-yl)methoxy)-6-(trifluoromethyl)quinazolin-4-yl)oxy)-4-fluoropyrrolidin-1-yl) prop-2-en-1-one] |
| > 1000 nM | A (percent of modification ≥70%) |  | 500 to 5000 nM | C (10%≤modification <50%) |  | C=CC(=O)N1CC[C@@H](Oc2nc(OC[C@@]34CCCN3C[C@H](F)C4)nc3c(F)c(-c4ccc(F)c5sc(N)nc45)ncc23)C1 [Compound 43] |
| ≤ 100 nM | A (percent of modification ≥70%) | C (10%≤modification <50%) |  | B (50≤percent of modification <70%) |  | C=CC(=O)N1CC[C@@H](Oc2nc(OC[C@@]34CCCN3C[C@H](F)C4)nc3cc(-c4ccc(F)c5sc(N)c(C#N)c45)c(F)cc23)[C@H]1C [Compound 109] |

— US20250188085A1, “COMPOSITIONS AND METHODS FOR INHIBITION OF RAS” (THERAS, INC., priority 2022, published 2025)
